According to patent US20140259881A1, “EXTERMINATION TECHNIQUES UTILIZING TERMITE EGG VOLATILE CALLING PHEROMONE AND QUEEN PHEROMONE” (National University Corporation Okayama University, priority 2009, published 2014):
Entries after “also recorded” stand apart in the source; their conditions may differ.

Columns and labels:
[1] = test system: Reticulitermes speratus worker termites; test: Rate of carrying mimic eggs coated with reference pheromone plus volatile test sample into the egg mass; type: in vivo; settings: 10% aqueous solution of sample added to lysozyme + β-glucosidase reference pheromone on 0.5 mm glass beads, 25° C., compared to no addition, Tukey-Kramer HSD test
Description: 2.0 mg of white-egg lysozyme and 1.0 mg of β-glucosidase were dissolved in a 50% aqueous solution of glycerol (a mixture of lysozyme and β-glucosidase). To this reference pheromone solution were added a 10% aqueous solution of each of the following volatile ingredient samples to examine the effect of enhancing the activity of carrying mimic eggs. The added samples were: butyl butyrate, 1-butanol, 2-butyl butyrate, 2-butanol, 2-methyl-1-butanol, and n-butyl acetate.
To 100 glass beads having a diameter of 0.5 mm were added 2.0 μL/bead of the above-described reference pheromone solution and 2.0 μL/bead of each of the test sample solutions and mixed well for coating the surface of the beads with each test sample.
At 24 hours after the start of the experiment, the rate of carrying mimic eggs into the egg mass was determined (for each of the test samples, experiments were made on the same procedures). Three repetitions were made for each treatment. Carrying rates were subjected to arcsine-root transformation, followed by statistical comparison by analysis of variance and Tukey-Kramer HSD test. […] FIGS. 6 to 11 show rates of carrying mimic eggs coated with each of the test samples into the egg mass after 24 hours.

[2] = test system: Reticulitermes speratus worker termites; test: Inhibitory effect on the differentiation into new termite queens by queen volatile pheromone samples; settings: volatile from unglazed ball, added every day; 25 days; 25° C.; compared to controls; Tukey-Kramer HSD test
termite = settings: patent documents 2 and 3; cited from earlier work
[3] = test system: Reticulitermes speratus worker termites; test: Rate of carrying mimic eggs coated with reference pheromone plus volatile test sample into the egg mass; type: in vivo; settings: preliminary experiments

Compound | activity of carrying mimic eggs / egg recognition activity (rate of carrying mimic eggs after 24 hours) [1] | other results
CCC(C)CO (stereo not drawn) [2-methyl-1-butanol] | remarkable increase in the egg recognition activity; also recorded: significantly enhance the activity of carrying mimic eggs | 
CCCCOC(=O)CCC [butyl butyrate] | no statistical significance, but were observed to have a tendency to enhance the activity of carrying mimic eggs; also recorded: enhance the activity of carrying mimic eggs, as compared to no addition, but there was no difference of statistical significance | 
CCCCOC(C)=O [n-butyl acetate, reference compound] | no effect of enhancing the activity of carrying mimic eggs | differentiation from worker termite into new termite queens [2]: no effect of inhibiting the differentiation into new termite queens
lysozyme |  | egg-recognition pheromone activity alone (termite): demonstrated to have egg-recognition pheromone activity alone
CCC(C)O (stereo not drawn) [2-butanol] | remarkable increase in the egg recognition activity; also recorded: significantly enhance the activity of carrying mimic eggs | 
CCCC(=O)O [butyric acid] |  | effect of increasing the egg-carrying activity [3]: no effect of increasing the egg-carrying activity
CCCC(=O)OC(C)CC (stereo not drawn) [2-butyl butyrate] | no statistical significance, but were observed to have a tendency to enhance the activity of carrying mimic eggs; also recorded: enhance the activity of carrying mimic eggs, as compared to no addition, but there was no difference of statistical significance | 
CCCCO [1-butanol] | remarkable increase in the egg recognition activity; also recorded: significantly enhance the activity of carrying mimic eggs | 
